Data as given in PubChem BioAssay (NCI).
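96-well plates; 48 h exposure; 5 concentrations. Endpoints by linear interpolation between flanking doses. Not reached: highest tested concentration assigned. TGI marks complete inhibition of growth.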 *1 amine or outer side, *2 acyl side, *3 side chain or, on linkers, in order; H or OH if unused. Where a SMILES comes first, the peptide text is derived from it. Bridges are numbered along the chain shown (N, C = ends). [ ]: non-standard residue; d: D form. The star is where a group is joined. X38 = CC[C@H](C)[C@@H](N[*:1])[C@@H](O)CC(=O)[*:2]; NMeY = CN[C@@H](Cc1ccc(O)cc1)C(=O)O; dNMeL = CN[C@H](CC(C)C)C(=O)O; Hiv = CC(C)[C@H](O)C(=O)O; Pyruvoyl = CC(=O)C(=O)*

Experiments:
Test in all cases: NCI anticancer screen, dose series, 48 h
786-0 renal = tested on: 786-0 renal
A498 renal = tested on: A498 renal
ACHN renal = tested on: ACHN renal
COLO 205 colon = tested on: COLO 205 colon
DU-145 prostate = tested on: DU-145 prostate
HCT-116 colon = tested on: HCT-116 colon
HS 578T breast = tested on: HS 578T breast
LOX IMVI melanoma = tested on: LOX IMVI melanoma
MDA-N = tested on: MDA-N
NCI-H23 lung = tested on: NCI-H23 lung
NCI-H460 lung = tested on: NCI-H460 lung
NCI-H522 lung = tested on: NCI-H522 lung
NCI/ADR-RES ovarian = tested on: NCI/ADR-RES ovarian
RXF 393 renal = tested on: RXF 393 renal
SF-268 CNS = tested on: SF-268 CNS
SF-295 CNS = tested on: SF-295 CNS
SK-OV-3 ovarian = tested on: SK-OV-3 ovarian
TK-10 renal = tested on: TK-10 renal
UO-31 renal = tested on: UO-31 renal
CCRF-CEM leukemia = tested on: CCRF-CEM leukemia

Row | SMILES | TGI (786-0 renal) | TGI (A498 renal) | TGI (ACHN renal) | TGI (COLO 205 colon) | TGI (DU-145 prostate) | TGI (HCT-116 colon) | TGI (HS 578T breast) | TGI (LOX IMVI melanoma) | TGI (MDA-N) | TGI (NCI-H23 lung) | TGI (NCI-H460 lung) | TGI (NCI-H522 lung) | TGI (NCI/ADR-RES ovarian) | TGI (RXF 393 renal) | TGI (SF-268 CNS) | TGI (SF-295 CNS) | TGI (SK-OV-3 ovarian) | TGI (TK-10 renal) | TGI (UO-31 renal) | TGI (CCRF-CEM leukemia)
1 | CC[C@H](C)[C@H]1NC(=O)[C@@H](NC(=O)[C@@H](CC(C)C)N(C)C(=O)[C@@H]2CCCN2C(=O)C(C)=O)[C@@H](C)OC(=O)[C@H](Cc2ccc(OC)cc2)N(C)C(=O)[C@@H]2CCCN2C(=O)[C@H](CC(C)C)NC(=O)[C@H](C(C)C)OC(=O)C[C@@H]1O (Pyruvoyl-P[dNMeL]T[X38][Hiv]LP[NMeY](Me); ester 3-C) | 0.0397 µM | 0.0904 µM | 0.438 µM | 0.00621 µM | 0.00299 µM | 0.12 µM | 0.283 µM | 0.0481 µM | 0.14 µM | 0.0421 µM | 0.0321 µM | 0.179 µM | 4.77 µM | 0.0122 µM | 0.0983 µM | 0.525 µM | 0.294 µM | 0.0643 µM | 0.137 µM | 
2 | O=C(NC(C(F)(F)F)(C(F)(F)F)P(=O)(c1ccccc1)c1ccccc1)C(C(F)(F)F)C(F)(F)F | 47.8 µM | > 100 µM | 30.9 µM | 37.4 µM | > 100 µM | 39.1 µM | > 100 µM | 58.9 µM | 44.2 µM | 64.2 µM | > 100 µM | 71.6 µM | 47.9 µM | 68.2 µM | > 100 µM | > 100 µM | > 100 µM | 72.7 µM |  | > 100 µM
3 | Cc1ccc(NCC2CC/C(=C\c3ccc(Cl)cc3)C2=O)cc1 (stereo not drawn) | 11.3 µM | > 73.3 µM | > 71.5 µM | 34.2 µM | > 80.6 µM | 26 µM | > 100 µM | 19 µM | 26.4 µM | 45.7 µM | > 62.4 µM | 15.8 µM | > 80.1 µM | 31 µM | 56.4 µM | > 100 µM | > 100 µM | 40.6 µM | 60 µM | 19.3 µM
4 | c1csc(-c2cscc2-c2ccsc2)c1 | > 100 µM | > 100 µM | > 100 µM | > 100 µM | > 100 µM | > 100 µM | > 31.6 µM | > 100 µM | > 63.3 µM | > 100 µM | > 100 µM | > 100 µM | > 100 µM | 68.3 µM | > 100 µM | > 100 µM | > 100 µM | > 100 µM | > 100 µM | > 100 µM
5 | COc1ccc(/C=C(\Cl)c2ccc(OC)c(OC)c2)cc1OC | > 100 µM | > 100 µM | > 100 µM | > 100 µM | > 100 µM | > 100 µM | > 100 µM | > 100 µM | > 100 µM | > 100 µM | > 100 µM | > 100 µM | > 100 µM | > 100 µM | > 100 µM | > 100 µM | > 100 µM | > 100 µM | > 100 µM | > 100 µM
